# Measured values as given in patent US5852213A, “Mercaptoketones and mercaptoalcohols and a process for their preparation” (American Cyanamid Company, priority 1997, dated 1998).
# Tests used:
# [1] = tested on: stromelysin; settings: PCT application WO 9407481; cited from earlier work
# [2] = target: T1, human recombinant fibroblast collagenase (Homo sapiens, UniProt P03956); test: Collagenase Inhibition in vitro; format: biochemical; settings: read-out: Collagenase IC50 (nM) or % inhibition: % inhibition
# T1 construct: human recombinant fibroblast collagenase (truncated, mw 18,828, WAR, Radnor)
# T1 sequence (P03956 100-269 limits assumed): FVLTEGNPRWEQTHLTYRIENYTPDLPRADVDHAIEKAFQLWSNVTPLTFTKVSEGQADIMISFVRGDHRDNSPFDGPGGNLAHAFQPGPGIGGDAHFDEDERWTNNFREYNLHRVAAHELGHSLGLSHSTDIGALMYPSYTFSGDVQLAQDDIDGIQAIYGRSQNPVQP
# Procedure: Collagenase Inhibition in vitro
# The assay is based on the cleavage of a peptide substrate ((Dnp-Pro-Cha-Gly-Cys(Me)-His-Ala-Lys(NMa)-NH2), Peptide International, Inc.) by collagenase releasing the fluorescent NMa group which is quantitated on the fluorometer. Dnp quenches the NMa fluorescence in the intact substrate. […] Substrate is dissolved in methanol and stored frozen in 1 mM aliquots. […] For the assay, substrate is dissolved in HCBC buffer to a final concentration of 10 μM and collagenase to a final concentration of 5 nM. Compounds are dissolved in methanol, DMSO, or HCBC. The methanol and DMSO are diluted in HCBC to <1%. Compounds are added to the 96 well plate containing enzyme and the reaction is started by the addition of substrate.
# The slope of the line is calculated and represents the reaction rate.
# (§1) The linearity of the reaction rate is confirmed (r^2 >0.85). The mean of the control rate is calculated and compared for statistical significance (p<0.05) with drug-treated rates using Dunnett's multiple comparison test.
# [3] = tested on: human recombinant stromelysin; test: Stromelysin Inhibition in vitro; format: biochemical
# Procedure: Stromelysin Inhibition in vitro.
# The increase in OD405 is plotted and the slope of the line is calculated which represents the reaction rate.
# as §1
# [4] = tested on: Collangenase I; test: In vivo MMP Inhibition (enzyme in implanted dialysis tubing); set-up: species or system rat (Sprague-Dawley) or mouse (CD-1)
# Procedure: A 2 cm piece of dialysis tubing (molecular weight cut-off 12-14,000, 10 mm flat width) containing matrix metalloproteinase enzyme (stromelysin, collagenase or gelatinase in 0.5 mL of buffer) is implanted either ip or sc (in the back) of a rat (Sprague-Dawley, 150-200 g) or mouse (CD-1, 25-50 g) under anesthesia. Drugs are administered PO, IP, SC or IV through a canula in the jugular vein. Drugs are administered in a dose volume of 0.1 to 0.25 mL/animal. Contents of the dialysis tubing is collected and enzyme activity assayed.
# Enzyme reaction rates for each dialysis tube are calculated. Tubes from at least 3 different animals are used to calculate the mean±sem. Statistical significance (p<0.05) of vehicle-treated animals versus drug-treated animals is determined by analysis of variance. (Agents and Actions 21: 331, 1987)
# [5] = tested on: MMP; settings: EP 0322,184 A2; cited from earlier work
compound,measurement,setting,value
CC(C)C[C@H](NC(=O)[C@@H](CS)CCc1ccccc1)C(=O)Nc1ccccc1,inhibitor of the MMP stromelysin,[1],moderate inhibitor
"CCCCCCC[C@H](C[C@@H](O)CS)C(=O)N[C@H](C(=O)NC)C(C)(C)C [Example 37, (2R)-2-((2R)-2-Hydroxy-3-mercaptopropyl)nonanoic acid ((1S)-2,2-dimethyl-1-methylcarbamoylpropyl)amide]",inhibition at 1 µM,[2],72%
"CCCCCCC[C@H](C[C@H](O)CS)C(=O)N[C@H](C(=O)NC)C(C)(C)C [Example 38, (2R)-2-((2S)-2-Hydroxy-3-mercaptopropyl)nonanoic acid ((1S)-2,2-dimethyl-l-methylcarbamoylpropyl)amide]",Stromelysin IC50 (nM) or % inhibition: % inhibition,[3]; @ 0.1 μM,96%
same,in vivo % Collangenase I inhibition,[4]; 50 mpk (milligrams/kilogram),22.2%
"CNC(=O)[C@@H](NC(=O)[C@H](CC(C)C)C[C@@H](O)CS)C(C)(C)C [Example 39, (2R,4R)-4-Hydroxy-2-isobutyl-5-mercaptopentanoic acid ((1S)-2,2-dimethyl-1-methylcarbamoylpropyl)amide]",Stromelysin IC50 (nM) or % inhibition: % inhibition,[3]; @ 300 nM,6%
same,in vivo % Collangenase I inhibition,[4]; 50 mpk (milligrams/kilogram),20.4%
"CNC(=O)[C@@H](NC(=O)[C@H](CC(C)C)C[C@H](O)CS)C(C)(C)C [Example 40, (2R,4S)-4-Hydroxy-2-isobutyl-5-mercaptopentanoic acid ((1S)-2,2-dimethyl-1-methylcarbamoylpropyl)amide]",in vivo % Collangenase I inhibition,[4]; 50 mpk (milligrams/kilogram),84.8%
"CCCCCCC[C@H](CC(=O)CS)C(=O)N[C@H](C(=O)NC)C(C)(C)C [Example 43, (2R)-2-(3-Mercapto-2-oxopropyl)nonanoic acid ((1S)-2,2-dimethyl-1-methylcarbamoylpropyl)amide]",IC50,[3]; read-out: Stromelysin IC50 (nM) or % inhibition: IC50,28 nM
same,in vivo % Collangenase I inhibition,[4]; 50 mpk (milligrams/kilogram),0.73%
"CNC(=O)[C@@H](NC(=O)[C@@H](CC(=O)CS)CC(C)C)C(C)(C)C [Example 44, (2R)-2-Isobutyl-5-mercapto-4-oxopentanoic acid ((1S)-2,2-dimethyl-1-methylcarbamoylpropyl)amide]",Stromelysin IC50 (nM) or % inhibition: % inhibition,[3]; @ 1 μM,58%
same,in vivo % Collangenase I inhibition,[4]; 60 mpk (milligrams/kilogram),4.8%
CNC(=O)[C@H](Cc1ccc(OC)cc1)NC(=O)[C@H](CC(C)C)C(S)CC(C)=O (some centres unmarked) [compound where P is 2-oxopropyl],times more potent than the compound where P is methyl,[5],approximately 20 times
CNC(=O)[C@H](Cc1ccc(OC)cc1)NC(=O)[C@H](CC(C)C)C(C)S (some centres unmarked) [compound where P is methyl],times more potent than the compound where P is hydrogen,[5],approximately 20 times
"(2R,4R)-4-Hydroxy-2-isobutyl-5-tritylsulfanylpentanoic acid ((1S)-2,2-dimethyl-1-methylcarbamoylpropyl)amide [Example 35]",in vivo % Collangenase I inhibition,[4]; 50 mpk (milligrams/kilogram),0.44%
